Tests used:
[1] = system: CC(C)(O/N=C(\C(=O)N[C@@H]1C(=O)N2C(C(=O)[O-])=C(C[n+]3ccccc3)CS[C@H]12)c1csc(N)n1)C(=O)O; experiment: purified protein, by the assay type; format: biochemical; details: other: substrate hydrolysis by purified KPC-2; pH 7.0; 37.0 °C
[2] = system: P. aeruginosa PAM1154 carrying pUCP24 vector (PAM4175); experiment: Checkerboard potentiation of antibiotic activity by BLIs; format: cell-based, Pseudomonas aeruginosa
Source text: BLI potency was defined as PV50 (PV, potentiation value) of antibiotic potentiation. PV50 is the concentration of a BLI that is required to reduce the antibiotic MIC to the middle of the MIC range where the highest MIC is the MIC for a KPC-producing strain with no inhibitor added and the lowest MIC is the MIC for the vector-alone strain, which corresponds to complete inhibition of KPC. As a given MIC is directly related to the β-lactamase activity, PV50 might be considered the concentration of a BLI that is required to achieve half-effect of inhibition of β-lactamase activity (in whole cells) to hydrolyze an antibiotic of interest. […] However, the accurate determination of PV50 requires the MIC range to be relatively wide.
(§1) For microbiological studies, wild-type blaKPC-2 and its mutant variants were cloned into the shuttle vector pUCP24. Resulting plasmids were transformed in the efflux-deficient strain of P. aeruginosa PAM1154 using selection on 15 μg/ml of gentamicin. Using a strain of P. aeruginosa as opposed to E. coli as a host for various cloned genes was based on the following consideration. As well documented elsewhere ([41]), P. aeruginosa has a low-permeability outer membrane; consequently, the effect of β-lactamases on MIC is amplified in P. aeruginosa compared to that in E. coli due to the slowed uptake of β-lactams. Thus, this host is appropriate to detect β-lactamase activity (as an MIC increase) of low-catalytic-efficiency enzymes that rely heavily on low permeability of the outer membrane. […] MICs were determined using the Clinical and Laboratory Standards Institute (CLSI) broth microdilution method as described in CLSI document M07-A11 ([42]). […] BLI potency was defined as PV50 (PV, potentiation value). PV50 is the minimal concentration of a BLI that is required to reduce the antibiotic MIC to the middle of the MIC range (E50) where the highest MIC is the MIC for a KPC-producing strain with no inhibitor added and the lowest MIC is the MIC for the vector-only strain, corresponding to the complete inhibition of KPC. E50 is calculated as the square root of the product of the antibiotic MICs for the KPC-producing and the vector-only strains.
[…]
8 antibiotic MIC values for the beta-lactamas e-producing and the vector onl y strain.

[3] = system: P. aeruginosa PAM1154 carrying pUCP24-KPC-2 (PAM4135); experiment: MIC, CLSI broth microdilution; format: cell-based; details: Pseudomonas aeruginosa; PAM4135, pUCP24-KPC-2; drug alone
Source text: (§2) The effects of KPC mutations on resistance to various antibiotics were investigated. For these studies, pUCP24 plasmids carrying wild-type and mutant blaKPC-2 genes as well as the pUCP24 vector were transformed into PAM1154, an efflux-deficient strain of Pseudomonas aeruginosa. In this host, the effect of β-lactamases on β-lactam MIC is amplified due to the slowed uptake of β-lactams across the low-permeability outer membrane without interference by efflux of either β-lactams or BLIs. Consequently, this host allows detection of β-lactamase activity (as an MIC increase) of low-catalytic-efficiency enzymes that rely heavily on the low permeability of the outer membrane. Using the strain that lacks efflux pumps ensures no interference from efflux in interpreting results. We next evaluated the steady-state protein expression levels in bacterial cells.
as §1

[4] = system: P. aeruginosa PAM1154 carrying pUCP24-KPC-2::D179Y (PAM4639); experiment: MIC, CLSI broth microdilution; format: cell-based, Pseudomonas aeruginosa; details: for MIC: Pseudomonas aeruginosa, PAM4639, pUCP24-KPC-2::D179Y, drug alone
Source text: as §2, §1

[5] = system: P. aeruginosa PAM1154 carrying pUCP24-KPC-2::L169P (PAM4751); experiment: MIC, CLSI broth microdilution; format: cell-based, Pseudomonas aeruginosa; details: for MIC: Pseudomonas aeruginosa, PAM4751, pUCP24-KPC-2::L169P, drug alone
Source text: as §2, §1

[6] = system: P. aeruginosa PAM1154 carrying pUCP24 vector (PAM4175); experiment: MIC, CLSI broth microdilution; format: cell-based; details: Pseudomonas aeruginosa, drug alone
Source text: as §2, with “cells. […] The observed discrepancy with our results could be attributed to the difference in either the expression vector or host bacteria.” for “cells.”
For microbiological studies, wild-type blaKPC-2 and its mutant variants were cloned into the shuttle vector pUCP24. Resulting plasmids were transformed in the efflux-deficient strain of P. aeruginosa PAM1154 using selection on 15 μg/ml of gentamicin. Using a strain of P. aeruginosa as opposed to E. coli as a host for various cloned genes was based on the following consideration. As well documented elsewhere ([41]), P. aeruginosa has a low-permeability outer membrane; consequently, the effect of β-lactamases on MIC is amplified in P. aeruginosa compared to that in E. coli due to the slowed uptake of β-lactams. Thus, this host is appropriate to detect β-lactamase activity (as an MIC increase) of low-catalytic-efficiency enzymes that rely heavily on low permeability of the outer membrane. […] MICs were determined using the Clinical and Laboratory Standards Institute (CLSI) broth microdilution method as described in CLSI document M07-A11 ([42]). Potentiation of antibiotic activity by various BLIs in bacterial strains carrying wild-type (WT) and mutant KPC-2 genes was performed using standard checkerboard methodology ([43]). BLI potency was defined as PV50 (PV, potentiation value). PV50 is the minimal concentration of a BLI that is required to reduce the antibiotic MIC to the middle of the MIC range (E50) where the highest MIC is the MIC for a KPC-producing strain with no inhibitor added and the lowest MIC is the MIC for the vector-only strain, corresponding to the complete inhibition of KPC. E50 is calculated as the square root of the product of the antibiotic MICs for the KPC-producing and the vector-only strains.

KPC-2 = target: T1, KPC-2 (Klebsiella pneumoniae, UniProt Q9F663); experiment: Kinetics of nitrocefin and ceftazidime hydrolysis by purified enzyme; format: biochemical; details: substrate hydrolysis by purified KPC-2
T1 construct: 6xHis (C); made in house; host or cells: E. coli BL21(DE3) pLys, pET28a
Description: (§3) Enzymes were mixed with various concentrations of nitrocefin in 50 mM sodium phosphate (pH 7.0)–0.1 mg/ml of bovine serum albumin (buffer A), and substrate cleavage was monitored at 490 nm every 10 s for 10 min at 37°C on a SpectraMax plate reader (Molecular Devices, San Jose, CA). Initial rates of nitrocefin cleavage were calculated and used to obtain Km and kcat values with Prism software (GraphPad, San Diego, CA).
(§4) Substrate cleavage was monitored at 260 nm every 30 s at room temperature using a SpectraMax plate reader. The reaction was monitored until OD260 values reached a plateau. Resulting OD260 versus time reaction profiles were fitted to the following equation using Prism software: At = A∞ + (A0 − A∞) × e^−k×t, where At is absorbance at time t, A0 is initial absorbance, and A∞ is final absorbance. In this equation, k = kcat/Km × [E], which allows calculatation of kcat/Km knowing the enzyme concentration ([44]).

KPC-2 D179Y = target: T2, KPC-2 D179Y (Klebsiella pneumoniae, UniProt Q9F663, D178Y); experiment: as above; format: biochemical
T2 construct: 6xHis (C); made in house; host or cells: E. coli BL21(DE3) pLys, pET28a
Description: as §3, §4

KPC-2 L169P = target: T3, KPC-2 L169P (Klebsiella pneumoniae, UniProt Q9F663, L168P); experiment: as above; format: biochemical
T3 construct: 6xHis (C); made in house; host or cells: E. coli (pET28a construct; BL21(DE3) pLys is named only for wild type and D179Y)
Description: as §3, §4

[7] = substrate hydrolysis by purified KPC-2 D179Y
[8] = substrate hydrolysis by purified KPC-2 L169P

KPC-2 (Klebsiella pneumoniae)
kcat [1]: > 2.6 s⁻¹ | kcat/Km [1]: 870 ± 110 M⁻¹ s⁻¹

CC(C)(O/N=C(\C(=O)N[C@@H]1C(=O)N2C(C(=O)[O-])=C(C[n+]3ccccc3)CS[C@H]12)c1csc(N)n1)C(=O)O [Ceftazidime, ceftazidime]
Antibiotic MIC, No BLI ([2]; no BLI): 0.25 µg/mL | MIC [3]: 32 µg/mL | MIC [4]: 512 µg/mL | MIC [5]: 256 µg/mL | MIC [6]: 0.25 µg/mL

O=C(Cc1cccs1)N[C@@H]1C(=O)N2C(C(=O)O)=C(/C=C/c3ccc([N+](=O)[O-])cc3[N+](=O)[O-])CS[C@H]12 [Nitrocefin, nitrocefin]
Km (KPC-2): 36 ± 5 µM | kcat (KPC-2): 132 ± 13 s⁻¹ | reduction of kcat vs wild-type KPC-2 (KPC-2 D179Y; KPC-2 D179Y): approximately 6,000 fold | Km (KPC-2 D179Y; [7]): 26 ± 12 µM | kcat (KPC-2 D179Y; [7]): 0.023 ± 0.002 s⁻¹ | reduction of kcat vs wild-type KPC-2 (KPC-2 L169P; KPC-2 L169P): ~300 fold | Km (KPC-2 L169P; [8]): 40 ± 10 µM | kcat (KPC-2 L169P; [8]): 0.47 ± 0.04 s⁻¹

C[C@@H](O)[C@H]1C(=O)N2C(C(=O)O)=C(S[C@@H]3CN[C@H](C(=O)N(C)C)C3)[C@H](C)[C@H]12 [Meropenem, meropenem]
MIC [3]: 64 µg/mL | reduction of MIC vs wild-type KPC-2 strain ([4]; D179Y strain): 64 fold | MIC [4]: 1 µg/mL | increase of MIC vs vector-only strain ([4]; {}): 8-16 fold | reduction of MIC vs wild-type KPC-2 strain ([5]; L169P strain): 64 fold | MIC [5]: 1 µg/mL | increase of MIC vs vector-only strain ([5]; {}): 8-16 fold | MIC [6]: 0.125 µg/mL

CCN1CCN(C(=O)N[C@@H](C(=O)N[C@@H]2C(=O)N3[C@@H]2SC(C)(C)[C@@H]3C(=O)O)c2ccccc2)C(=O)C1=O [Piperacillin, piperacillin]
Beta-lactam MIC in the presence of BLI ([2]; avibactam 0 µg/ml): 0.125 µg/mL | Beta-lactam MIC in the presence of BLI ([2]; avibactam 0.008 µg/ml): 0.125 µg/mL | Beta-lactam MIC in the presence of BLI ([2]; avibactam 0.031 µg/ml): 0.125 µg/mL | Beta-lactam MIC in the presence of BLI ([2]; avibactam 0.06 µg/ml): 0.125 µg/mL | Beta-lactam MIC in the presence of BLI ([2]; avibactam 0.5 µg/ml): 0.125 µg/mL | Beta-lactam MIC in the presence of BLI ([2]; avibactam 64 µg/ml): 0.03 µg/mL | Beta-lactam MIC in the presence of BLI ([2]; avibactam […]): 0.125 µg/mL | Beta-lactam MIC in the presence of BLI ([2]; vaborbactam 0 µg/ml): 0.125 µg/mL | Beta-lactam MIC in the presence of BLI ([2]; vaborbactam 0.008 µg/ml): 0.125 µg/mL | Beta-lactam MIC in the presence of BLI ([2]; vaborbactam 0.031 µg/ml): 0.125 µg/mL | Beta-lactam MIC in the presence of BLI ([2]; vaborbactam 0.06 µg/ml): 0.125 µg/mL | Beta-lactam MIC in the presence of BLI ([2]; vaborbactam 0.5 µg/ml): 0.125 µg/mL | Beta-lactam MIC in the presence of BLI ([2]; vaborbactam 1 µg/ml): 0.125 µg/mL | Beta-lactam MIC in the presence of BLI ([2]; vaborbactam 2 µg/ml): 0.125 µg/mL | Beta-lactam MIC in the presence of BLI ([2]; vaborbactam 4 µg/ml): 0.125 µg/mL | Beta-lactam MIC in the presence of BLI ([2]; vaborbactam 8 μg/ml): 0.125 µg/mL | Beta-lactam MIC in the presence of BLI ([2]; vaborbactam 16 µg/ml): 0.125 µg/mL | Beta-lactam MIC in the presence of BLI ([2]; vaborbactam […]): 0.125 µg/mL | MIC [6]: 0.06 µg/mL

C[C@H]1[C@H](NC(=O)/C(=N\OC(C)(C)C(=O)O)c2csc(N)n2)C(=O)N1S(=O)(=O)O [Aztreonam, aztreonam]
MIC [6]: 0.125 µg/mL

— PMC7179312 (Antimicrobial Agents and Chemotherapy, 2020)
